Source: PubChem BioAssay AID1259407 (Chemical Carcinogenesis Research Information System (CCRIS), 2018)
The source made the active and inactive calls. How the calls were made is not given here.

Test system: CCRIS mutagenicity, Ames/micronucleus/aberration tests
Test: CCRIS mutagenicity studies
[1] = Test System: AMES SALMONELLA TYPHIMURIUM, Strain/Indicator: TA98, Metabolic Activation: NONE, Method: STANDARD PLATE
[2] = Test System: AMES SALMONELLA TYPHIMURIUM, Strain/Indicator: TA98, Metabolic Activation: RAT, LIVER, S-9, AROCLOR 1254, Method: STANDARD PLATE
[3] = Test System: AMES SALMONELLA TYPHIMURIUM, Strain/Indicator: TA100, Metabolic Activation: NONE, Method: STANDARD PLATE
[4] = Test System: AMES SALMONELLA TYPHIMURIUM, Strain/Indicator: TA100, Metabolic Activation: RAT, LIVER, S-9, AROCLOR 1254, Method: STANDARD PLATE
[5] = Test System: AMES SALMONELLA TYPHIMURIUM, Strain/Indicator: TA1535, Metabolic Activation: NONE, Method: STANDARD PLATE
[6] = Test System: AMES SALMONELLA TYPHIMURIUM, Strain/Indicator: TA1535, Metabolic Activation: RAT, LIVER, S-9, AROCLOR 1254, Method: STANDARD PLATE
[7] = Test System: AMES SALMONELLA TYPHIMURIUM, Strain/Indicator: TA1537, Metabolic Activation: NONE, Method: STANDARD PLATE
[8] = Test System: AMES SALMONELLA TYPHIMURIUM, Strain/Indicator: TA1537, Metabolic Activation: RAT, LIVER, S-9, AROCLOR 1254, Method: STANDARD PLATE

For CC(C)N=C=NC(C)C, the mutagenic call (End Point: In vivo micronucleus, Test System: Bone marrow polychromatic erythrocytes, Species: Mouse, Strain/Sex: B6C3F1/Male, Route: Intraperitoneal) was “inactive; negative”, the mutagenic call (End Point: In vivo micronucleus, Test System: Bone marrow polychromatic erythrocytes, Species: Rat, Strain/Sex: F344/N/Male, Route: Intraperitoneal) was “inactive; negative” and the mutagenic call (End Point: In vivo micronucleus, Test System: Peripheral blood erythrocytes, Species: Mouse, Strain/Sex: B6C3F1/Female, Route: Dermal) was “active; positive; 100% mortality at 280 mg/kg”. The mutagenic call (End Point: In vivo micronucleus, Test System: Peripheral blood erythrocytes, Species: Mouse, Strain/Sex: B6C3F1/Male, Route: Dermal) was “active; positive; 100% mortality at 280 mg/kg”, the mutagenic call (End Point: In vivo micronucleus, Test System: Peripheral blood normochromatic and polychromatic erythrocytes and bone marrow polychromatic erythrocytes, Species: Mouse, Strain/Sex: B6C3F1/Male, Route: Dermal) was “inactive; positive (peripheral blood); negative (bone marrow)” and the mutagenic call (End Point: In vivo micronucleus, Test System: Polychromatic erythrocytes (Bone marrow and peripheral blood), Species: Mouse, Strain/Sex: B6C3F1/Male, Route: Intraperitoneal) was “active; positive in peripheral blood polychromatic erythrocytes; no significant increase”. The mutagenic call (Test System: AMES SALMONELLA TYPHIMURIUM, Strain/Indicator: TA98, Metabolic Activation: HAMSTER, LIVER, S-9, AROCLOR 1254, Method: STANDARD PLATE) was “inactive; negative”, the mutagenic call [1] was “inactive; negative” and the mutagenic call [2] was “inactive; negative”. The mutagenic call (Test System: AMES SALMONELLA TYPHIMURIUM, Strain/Indicator: TA100, Metabolic Activation: HAMSTER, LIVER, S-9, AROCLOR 1254, Method: STANDARD PLATE) was “inactive; negative”, the mutagenic call [3] was “inactive; negative” and the mutagenic call [4] was “inactive; negative”. The mutagenic call (Test System: AMES SALMONELLA TYPHIMURIUM, Strain/Indicator: TA1535, Metabolic Activation: HAMSTER, LIVER, S-9, AROCLOR 1254, Method: STANDARD PLATE) was “inactive; negative”, the mutagenic call [5] was “inactive; negative” and the mutagenic call [6] was “inactive; negative”. For the same compound, the mutagenic call (Test System: AMES SALMONELLA TYPHIMURIUM, Strain/Indicator: TA1537, Metabolic Activation: HAMSTER, LIVER, S-9, AROCLOR 1254, Method: STANDARD PLATE) was “inactive; negative”, the mutagenic call [7] was “inactive; negative” and the mutagenic call [8] was “inactive; negative”. The mutagenic call (Test System: AMES SALMONELLA TYPHIMURIUM, Strain/Indicator: TA1538, Metabolic Activation: HAMSTER, LIVER, S-9, AROCLOR 1254, Method: STANDARD PLATE) was “inactive; negative”, the mutagenic call (Test System: AMES SALMONELLA TYPHIMURIUM, Strain/Indicator: TA1538, Metabolic Activation: NONE, Method: STANDARD PLATE) was “inactive; negative” and the mutagenic call (Test System: AMES SALMONELLA TYPHIMURIUM, Strain/Indicator: TA1538, Metabolic Activation: RAT, LIVER, S-9, AROCLOR 1254, Method: STANDARD PLATE) was “inactive; negative”. For the same compound, the mutagenic call (Test System: Ames Salmonella typhimurium, Strain/Indicator: TA97, Metabolic Activation: None, Method: Preincubation) was “inactive; negative”, the mutagenic call (Test System: Ames Salmonella typhimurium, Strain/Indicator: TA97, Metabolic Activation: Rat, liver, S-9, Aroclor 1254, Method: Preincubation) was “inactive; negative” and the mutagenic call (Test System: Ames Salmonella typhimurium, Strain/Indicator: TA97, Metabolic Activation: Syrian hamster, liver, S-9, Aroclor 1254, Method: Preincubation) was “inactive; negative”. For the same compound, the mutagenic call (Test System: Ames Salmonella typhimurium, Strain/Indicator: TA98, Metabolic Activation: None, Method: Preincubation) was “inactive; negative”, the mutagenic call (Test System: Ames Salmonella typhimurium, Strain/Indicator: TA98, Metabolic Activation: Rat, liver, S-9, Aroclor 1254, Method: Preincubation) was “inactive; negative” and the mutagenic call (Test System: Ames Salmonella typhimurium, Strain/Indicator: TA98, Metabolic Activation: Syrian hamster, liver, S-9, Aroclor 1254, Method: Preincubation) was “inactive; negative”. For the same compound, the mutagenic call (Test System: Ames Salmonella typhimurium, Strain/Indicator: TA100, Metabolic Activation: None, Method: Preincubation) was “inactive; negative”, the mutagenic call (Test System: Ames Salmonella typhimurium, Strain/Indicator: TA100, Metabolic Activation: Rat, liver, S-9, Aroclor 1254, Method: Preincubation) was “inactive; negative” and the mutagenic call (Test System: Ames Salmonella typhimurium, Strain/Indicator: TA100, Metabolic Activation: Syrian hamster, liver, S-9, Aroclor 1254, Method: Preincubation) was “inactive; negative”. The mutagenic call (Test System: Ames Salmonella typhimurium, Strain/Indicator: TA1535, Metabolic Activation: None, Method: Preincubation) was “inactive; negative”, the mutagenic call (Test System: Ames Salmonella typhimurium, Strain/Indicator: TA1535, Metabolic Activation: Rat, liver, S-9, Aroclor 1254, Method: Preincubation) was “inactive; negative” and the mutagenic call (Test System: Ames Salmonella typhimurium, Strain/Indicator: TA1535, Metabolic Activation: Syrian hamster, liver, S-9, Aroclor 1254, Method: Preincubation) was “inactive; negative”. The mutagenic call (Test System: MOUSE LYMPHOMA, Strain/Indicator: L5178Y (TK+/TK-), Metabolic Activation: NONE, Method: SUSPENSION/PLATE) was “active; positive. reevaluation of results: positive” and the mutagenic call (Test System: MOUSE LYMPHOMA, Strain/Indicator: L5178Y (TK+/TK-), Metabolic Activation: RAT, LIVER, S-9, AROCLOR 1254, Method: SUSPENSION/PLATE) was “active; positive. reevaluation of results: positive”.
For CCCCON(OC(C)=O)C(=O)c1ccc(C(C)(C)C)cc1, the mutagenic call [3] was “active; positive” and the mutagenic call (Test System: AMES SALMONELLA TYPHIMURIUM, Strain/Indicator: TA100, Metabolic Activation: RAT, S-9, AROCLOR, Method: STANDARD PLATE) was “active; positive”.
COc1ccc2c(c1)[C@H]1CCCC[C@@H]1[C@H]1O[C@@H]21 was tested, and the mutagenic call [1] was “inactive; negative” and the mutagenic call [3] was “inactive; negative”.
CNCCCN1c2ccccc2CCc2ccccc21 was tested, and the mutagenic call [1] was “inactive; negative”, the mutagenic call [2] was “inactive; negative” and the mutagenic call [3] was “inactive; negative”. For the same compound, the mutagenic call [4] was “inactive; negative”, the mutagenic call [5] was “inactive; negative” and the mutagenic call [6] was “inactive; negative”. The mutagenic call [7] was “inactive; negative” and the mutagenic call [8] was “inactive; negative”.
With Cc1c(C)c([N+](=O)[O-])c(C(C)(C)C)c([N+](=O)[O-])c1C the mutagenic call (Test System: AMES SALMONELLA TYPHIMURIUM, Strain/Indicator: TA98, Metabolic Activation: RAT, LIVER, S-9, AROCLOR 1254, Method: PREINCUBATION) was “inactive; negative”, the mutagenic call [2] was “inactive; negative” and the mutagenic call (Test System: AMES SALMONELLA TYPHIMURIUM, Strain/Indicator: TA100, Metabolic Activation: RAT, LIVER, S-9, AROCLOR 1254, Method: PREINCUBATION) was “inactive; negative”. The mutagenic call [4] was “inactive; negative”.
With c1ccc2c(c1)cc1c3cccc4cccc(c5cccc2c51)c43 the mutagenic call (Test System: HUMAN H1A1V2 CELLS, Strain/Indicator: TK LOCUS, Metabolic Activation: NONE, Method: SUSPENSION/PLATE) was “active; positive”.
